Common to all, as to experiment: relative viability (nuclei count vs DMSO), 5 days (fraction); higher = more cells survive
Compound in the test “Tipifarnib + Trametinib”: Cn1cncc1[C@@](N)(c1ccc(Cl)cc1)c1ccc2c(c1)c(-c1cccc(Cl)c1)cc(=O)n2C [Tipifarnib] + CC(=O)Nc1cccc(-n2c(=O)n(C3CC3)c(=O)c3c(Nc4ccc(I)cc4F)n(C)c(=O)c(C)c32)c1 [Trametinib] (partner 0.02 µM)
A digest of the protocol: (§1)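 The day after seeding in 1536-well plates, lung cancer cell lines were treated by pin tool with a single drug, or with a fixed anchor-drug dose together with five library-drug doses (not always all listed) in √10 steps. After 5 days, a combined fix-and-stain solution (final 0.05% Triton X-100, 1% formaldehyde, 1 ug/ml Hoechst) was added. Nuclei counted on 4× images gave relative viability as treated counts over vehicle counts, reported as the median of duplicate plates.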

Compound in the test “Tipifarnib + Navitoclax”: Cn1cncc1[C@@](N)(c1ccc(Cl)cc1)c1ccc2c(c1)c(-c1cccc(Cl)c1)cc(=O)n2C [Tipifarnib] + CC1(C)CCC(c2ccc(Cl)cc2)=C(CN2CCN(c3ccc(C(=O)NS(=O)(=O)c4ccc(N[C@H](CCN5CCOCC5)CSc5ccccc5)c(S(=O)(=O)C(F)(F)F)c4)cc3)CC2)C1 [Navitoclax] (partner 0.5 µM)
A digest of the protocol: as §1

Compound in the test “Tipifarnib + Phenformin”: Cn1cncc1[C@@](N)(c1ccc(Cl)cc1)c1ccc2c(c1)c(-c1cccc(Cl)c1)cc(=O)n2C [Tipifarnib] + N=C(N)NC(=N)NCCc1ccccc1 [Phenformin] (partner 250 µM)
The method in brief: as §1

Compound in the test “Tipifarnib + Pemetrexed”: Cn1cncc1[C@@](N)(c1ccc(Cl)cc1)c1ccc2c(c1)c(-c1cccc(Cl)c1)cc(=O)n2C [Tipifarnib] + Nc1nc2[nH]cc(CCc3ccc(C(=O)N[C@@H](CCC(=O)O)C(=O)O)cc3)c2c(=O)[nH]1 [Pemetrexed] (partner 0.2 µM)
A digest of the protocol: as §1

Data on 4 cell lines can be found in the supplement of paper PMC10307832.

H3255: the relative viability with Tipifarnib + Trametinib (first compound 0.01 µM) worked out at 0.674; with Tipifarnib + Trametinib (first compound 0.03162 µM) it was 0.576; in the test with Tipifarnib + Trametinib (first compound 0.1 µM) it was 0.542; with Tipifarnib + Trametinib (first compound 0.3162 µM) it was 0.458; with Tipifarnib + Trametinib (first compound 1 µM) it was 0.471; in the test with Tipifarnib + Navitoclax (first compound 0.01 µM) it was 0.546. The relative viability in the test with Tipifarnib + Navitoclax (first compound 0.03162 µM) stood at 0.568; in the test with Tipifarnib + Navitoclax (first compound 0.1 µM), 0.496; with Tipifarnib + Navitoclax (first compound 0.3162 µM), 0.35; with Tipifarnib + Navitoclax (first compound 1 µM), 0.299; with Tipifarnib + Phenformin (first compound 0.01 µM), 0.376; in the test with Tipifarnib + Phenformin (first compound 0.03162 µM) it was 0.436. Further, the relative viability amounted to 0.395 with Tipifarnib + Phenformin (first compound 0.1 µM); 0.344 in the test with Tipifarnib + Phenformin (first compound 0.3162 µM); 0.353 in the test with Tipifarnib + Phenformin (first compound 1 µM); 0.674 with Tipifarnib + Pemetrexed (first compound 0.01 µM); 0.543 in the test with Tipifarnib + Pemetrexed (first compound 0.03162 µM); 0.562 with Tipifarnib + Pemetrexed (first compound 0.1 µM). Besides, the relative viability in the test with Tipifarnib + Pemetrexed (first compound 0.3162 µM) came to 0.541; in the test with Tipifarnib + Pemetrexed (first compound 1 µM), 0.499.
For the cell line LXF-289, the relative viability came to 0.71 in the test with Tipifarnib + Trametinib (first compound 0.01 µM); 0.684 in the test with Tipifarnib + Trametinib (first compound 0.03162 µM); 0.695 in the test with Tipifarnib + Trametinib (first compound 0.1 µM); 0.557 with Tipifarnib + Trametinib (first compound 0.3162 µM); 0.64 with Tipifarnib + Trametinib (first compound 1 µM); 0.936 with Tipifarnib + Navitoclax (first compound 0.01 µM). Moreover, the relative viability with Tipifarnib + Navitoclax (first compound 0.03162 µM) stood at 0.959; with Tipifarnib + Navitoclax (first compound 0.1 µM), 0.87; with Tipifarnib + Navitoclax (first compound 0.3162 µM) it was 0.829; with Tipifarnib + Navitoclax (first compound 1 µM), 0.856; with Tipifarnib + Phenformin (first compound 0.01 µM), 0.518; with Tipifarnib + Phenformin (first compound 0.03162 µM), 0.494. In addition, the relative viability with Tipifarnib + Phenformin (first compound 0.1 µM) amounted to 0.494; in the test with Tipifarnib + Phenformin (first compound 0.3162 µM), 0.418; with Tipifarnib + Phenformin (first compound 1 µM), 0.175; in the test with Tipifarnib + Pemetrexed (first compound 0.01 µM), 0.849; in the test with Tipifarnib + Pemetrexed (first compound 0.03162 µM), 0.884; with Tipifarnib + Pemetrexed (first compound 0.1 µM), 0.835. Further, the relative viability with Tipifarnib + Pemetrexed (first compound 0.3162 µM) was 0.759; with Tipifarnib + Pemetrexed (first compound 1 µM) it was 0.526.
For the cell line UMC-11, the relative viability is 0.653 with Tipifarnib + Trametinib (first compound 0.01 µM); 0.569 with Tipifarnib + Trametinib (first compound 0.03162 µM); 0.471 with Tipifarnib + Trametinib (first compound 0.1 µM); 0.377 in the test with Tipifarnib + Trametinib (first compound 0.3162 µM); 0.301 with Tipifarnib + Trametinib (first compound 1 µM); 0.263 with Tipifarnib + Navitoclax (first compound 0.01 µM). Moreover, the relative viability with Tipifarnib + Navitoclax (first compound 0.03162 µM) worked out at 0.211; with Tipifarnib + Navitoclax (first compound 0.1 µM), 0.235; in the test with Tipifarnib + Navitoclax (first compound 0.3162 µM), 0.191; in the test with Tipifarnib + Navitoclax (first compound 1 µM) it was 0.194; in the test with Tipifarnib + Phenformin (first compound 0.01 µM), 0.332; with Tipifarnib + Phenformin (first compound 0.03162 µM), 0.311. For the same cell line, the relative viability came out at 0.303 with Tipifarnib + Phenformin (first compound 0.1 µM); 0.251 in the test with Tipifarnib + Phenformin (first compound 0.3162 µM); 0.238 with Tipifarnib + Phenformin (first compound 1 µM); 0.578 with Tipifarnib + Pemetrexed (first compound 0.01 µM); 0.65 with Tipifarnib + Pemetrexed (first compound 0.03162 µM); 0.499 in the test with Tipifarnib + Pemetrexed (first compound 0.1 µM). In addition, the relative viability with Tipifarnib + Pemetrexed (first compound 0.3162 µM) came to 0.46; with Tipifarnib + Pemetrexed (first compound 1 µM), 0.424.
Regarding LC-2-ad, the relative viability in the test with Tipifarnib + Trametinib (first compound 0.01 µM) was determined as 0.938; in the test with Tipifarnib + Trametinib (first compound 0.03162 µM), 0.661; with Tipifarnib + Trametinib (first compound 0.1 µM), 0.669; with Tipifarnib + Trametinib (first compound 0.3162 µM) it was 0.561; with Tipifarnib + Trametinib (first compound 1 µM) it was 0.532; in the test with Tipifarnib + Navitoclax (first compound 0.01 µM), 0.413. Besides, the relative viability with Tipifarnib + Navitoclax (first compound 0.03162 µM) was found to be 0.296; in the test with Tipifarnib + Navitoclax (first compound 0.1 µM), 0.258; with Tipifarnib + Navitoclax (first compound 0.3162 µM), 0.216; with Tipifarnib + Navitoclax (first compound 1 µM), 0.201; in the test with Tipifarnib + Phenformin (first compound 0.01 µM), 0.566; with Tipifarnib + Phenformin (first compound 0.03162 µM) it was 0.532. In addition, the relative viability in the test with Tipifarnib + Phenformin (first compound 0.1 µM) came out at 0.498; with Tipifarnib + Phenformin (first compound 0.3162 µM), 0.568; with Tipifarnib + Phenformin (first compound 1 µM), 0.372; in the test with Tipifarnib + Pemetrexed (first compound 0.01 µM) it was 0.273; with Tipifarnib + Pemetrexed (first compound 0.03162 µM) it was 0.271; with Tipifarnib + Pemetrexed (first compound 0.1 µM), 0.283. Besides, the relative viability with Tipifarnib + Pemetrexed (first compound 0.3162 µM) came to 0.265; with Tipifarnib + Pemetrexed (first compound 1 µM), 0.275.
